Experimental findings from patent publication US9079900B2, “Methods of synthesis and purification of heteroaryl compounds” (SIGNAL PHARMACEUTICALS, LLC, priority 2009, dated 2015) are described below.

In general, melting point refers to the temperature of the solid-liquid transition.

The compound `CC(C)(O)c1ccc(-c2cnc3c(n2)N(CCN2CCOCC2)CC(=O)N3)cn1` [Example 5, 6-(6-(2-Hydroxypropan-2-yl)pyridin-3-yl)-4-(2-morpholinoethyl)-3,4-dihydropyrazino[2,3-b]pyrazin-2(1H)-one] gave a melting point of 239 to 241 °C.
For `O=C1CNc2ncc(-c3cnc4[nH]ccc4c3)nc2N1CCC1CCOCC1` [Example 15, 7-(1H-Pyrrolo[2,3-b]pyridin-5-yl)-1-(2-(tetrahydro-2h-pyran-4-yl)ethyl)-3,4-dihydropyrazino[2,3-b]pyrazin-2(1H)-one] the value was 255 to 258 °C.
